According to US20250250251A1, “PIPERIDINYLPYRIDINYLCARBONITRILE DERIVATIVES AS INHIBITORS OF GLUTAMINYL-PEPTIDE CYCLOTRANSFERASE AND GLUTAMINYL-PEPTIDE CYCLOTRANSFERASE LIKE PROTEIN” (Boehringer Ingelheim International GmbH, priority 2024, published 2025):

Tested on: SIRPα signalling induced by A549 cells
Assay: Assay B: SIRPα signalling assay using A549 cells
Type: cell-based
Conditions: Homo sapiens, Table 4, compounds of the invention, read-out: Inhibition of SIRPα signalling induced by A549 cells: IC50
Protocol: Two cell types are independently used: the Raji cell line (lymphoblast-like human cell line derived from B lymphocytes from a Burkitt's lymphoma patient in 1963) and A549 cells (adenocarcinoma human alveolar basal epithelial cells).
Test compounds were dissolved in 100% DMSO and serially diluted into a white 384-well microtiter cell culture plate (PerkinElmer #60076780 in case of Raji assay; PDL-coated plates Greiner #781945 in case of A549 assay). 5000 Raji cells (ATCC #CC86) or 5000 A549 cells (ATCC #CCL-185) in Assay Complete Cell Plating reagent 30 (DiscoverX 93-0563R30B) were added per well. The assay plate was incubated for 48 h at 37° C., 95% humidity and 5% CO2. 15000 reporter cells (Jurkat PathHunter SIRPαV1, DiscoverX #93-1135C19) were added to each well, and the plate was incubated for 5 h at 37° C., 95% humidity and 5% CO2. Bioassay reagent 1 of the PathHunter Bioassay detection kit (DiscoverX 93-0001) was added to each well of the plate using a multichannel pipette followed by a 15 min incubation at room temperature. Afterwards bioassay reagent 2 was added followed by 60 min incubation at room temperature (incubation in the dark).
The analysis of the data was performed using the luminescence signal generated by beta-galactosidase in the PathHunter reporter cell line. The luminescence measurement was done using a Pherastar Multi-Mode Reader. Dose-response curves & IC50 data were calculated with 4-parameter sigmoidal dose response formula.

| SMILES | IC50 [nM] |
| --- | --- |
| Cn1cnnc1C1(F)CCN(c2c(C#N)cc(C(F)(F)F)nc2-c2cnc3nn(C(C)(C)C)cc3c2C(F)F)CC1 [Example 15] | 1 |
| Cc1nn(C)c(C)c1-c1cc(C#N)c(N2CCC(F)(c3nncn3C)CC2)c(-c2cnc3nn(C(F)(F)F)cc3c2)n1 [Example 23] | 43 |
| Cc1nn(C)cc1-c1cc(C#N)c(N2CCC(F)(c3nncn3C)CC2)c(-c2cnc3nn(C(F)(F)F)cc3c2)n1 [Example 17] | 22 |

Tested on: CYP3A4 mRNA
Assay: Assay D: CYP induction screening assay in primary human hepatocytes
Type: in vitro ADME
Conditions: Table 9, compounds of the invention, 48 h
Protocol: Cryopreserved plateable human hepatocytes (single donor. BioIVT) were thawed and plated in Collagen-I coated 96-well-plates at a cell density of 0.07 million cells per well.
After a 6 h attachment period, the seeding medium was replaced by serum-free William's medium E supplemented with Matrigel (0.25 mg/ml) and allowed to recover overnight. 24 h post-seeding, serum-free Williams E medium containing the test compound at a final concentration of […] and a final DMSO content of 0.1% and 0.1% DMSO (solvent-treated control), respectively, was added to predefined wells. Exposure solutions were renewed after 24 h.
After 48 h of treatment in total, the effect of the test compounds on CYP3A4 mRNA expression was assessed using the QuantiGene Plex Gene Expression Assay. Hepatocytes were lysed and total RNA was extracted using the QuantiGene Sample Processing Kit according to the instructions of the manufacturer.
mRNA quantification was conducted using a customized QuantiGene Plex Panel to analyse CYP3A4 and the housekeeper genes RPL32, EIF4E2 and GUSB according to the instructions of the manufacturer and measured on a Luminex™ instrument. Signal was reported as median fluorescence intensity (MFI), which is proportional to the number of target RNA molecules present in the sample.
For calculation of CYP3A4 mRNA induction, the signal for CYP3A4 was normalized against the geometric mean of the signal obtained for the housekeeper genes for hepatocytes exposed to test compounds in relation to solvent-treated samples according to the following equation: […]

| SMILES | n-fold induction of CYP3A4 at 10 μM [n-fold] |
| --- | --- |
| Cn1cnnc1C1(F)CCN(c2c(C#N)cc(C(F)(F)F)nc2-c2cnc3nn(C(C)(C)C)cc3c2C(F)F)CC1 [Example 15] | 14.2 |
| Cc1nn(C)c(C)c1-c1cc(C#N)c(N2CCC(F)(c3nncn3C)CC2)c(-c2cnc3nn(C(F)(F)F)cc3c2)n1 [Example 23] | 1.1 |
| Cc1nn(C)cc1-c1cc(C#N)c(N2CCC(F)(c3nncn3C)CC2)c(-c2cnc3nn(C(F)(F)F)cc3c2)n1 [Example 17] | 3.0 |

Target: T1, QPCTL (Homo sapiens, UniProt Q9NXS2)
T1 construct: made in house
T1 sequence (Q9NXS2 whole entry, species assumed): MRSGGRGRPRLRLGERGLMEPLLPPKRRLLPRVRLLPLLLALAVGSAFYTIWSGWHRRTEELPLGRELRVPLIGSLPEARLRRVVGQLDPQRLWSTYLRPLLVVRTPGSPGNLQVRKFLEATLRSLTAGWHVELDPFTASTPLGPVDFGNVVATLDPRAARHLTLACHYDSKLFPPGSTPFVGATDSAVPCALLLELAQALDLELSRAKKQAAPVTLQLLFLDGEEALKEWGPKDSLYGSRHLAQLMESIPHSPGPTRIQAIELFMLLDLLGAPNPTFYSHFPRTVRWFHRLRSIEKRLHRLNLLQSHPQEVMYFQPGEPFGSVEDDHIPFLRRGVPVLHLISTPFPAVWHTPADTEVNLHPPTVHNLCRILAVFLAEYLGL
Assay: Assay A: biochemical QPCTL activity assay (MALDI-TOF MS, CD47 peptide substrate)
Conditions: Table 2, compounds of the invention, read-out: Inhibition of QPCTL: IC50
Protocol: (§1) QPCT or QPCTL dependent conversion of N-terminal glutamine to pyroglutamate of CD47 was monitored via MALDI-TOF MS. Test compounds were dissolved in 100% DMSO and serially diluted into clear 1,536-well microtiter plates. Enzymatic reactions were set up in assay buffer containing 20 mM Tris pH 7.5, 0.1 mM TCEP, 0.01% BSA, and 0.001% Tween20. […] The plates were incubated for 10 min in a humidified incubator at 24° C. Subsequently, 2.5 μL of CD47 peptide substrate surrogate (^19[…]^33) was added to each well (final concentration: 10 μM for QPCTL/20 μM for QPCT). The plates were mixed for 30 sec at 1,000 rpm and subsequently incubated for 40 min in a humidified incubator at 24° C. […] The plates were sealed with an adhesive foil, mixed for 30 s at 1,000 rpm and stored at room temperature until preparation of the MALDI target plates. MALDI target plates were prepared as described previously. […] QPCT or QPCTL activity was monitored by calculating the ratio between product and internal standard signals followed by normalization to high (100% activity) and low (0% activity) controls. Determination of compound potencies was obtained by fitting the dose-response data to a four-parameter logistical equation.

| SMILES | IC50 [nM] |
| --- | --- |
| Cn1cnnc1C1(F)CCN(c2c(C#N)cc(C(F)(F)F)nc2-c2cnc3nn(C(C)(C)C)cc3c2C(F)F)CC1 [Example 15] | 12 |
| Cc1nn(C)c(C)c1-c1cc(C#N)c(N2CCC(F)(c3nncn3C)CC2)c(-c2cnc3nn(C(F)(F)F)cc3c2)n1 [Example 23] | 1 |
| Cc1nn(C)cc1-c1cc(C#N)c(N2CCC(F)(c3nncn3C)CC2)c(-c2cnc3nn(C(F)(F)F)cc3c2)n1 [Example 17] | 2 |

Tested on: not listed separately
Assay: Assay C: permeability in CACO-2 cells
Type: in vitro ADME
Conditions: human, pH 7.2; Table 7, compounds of the invention, CACO-2 cells
Protocol: Caco-2 cells (1-2×10^5 cells/1 cm^2 area) are seeded on filter inserts (Costar transwell polycarbonate or PET filters, 0.4 μm pore size) and cultured (DMEM) for 10 to 25 days. Compounds are dissolved in appropriate solvent (like DMSO, 1-20 mM stock solutions). […] The transport solution (TL) is applied to the apical or basolateral donor side for measuring A-B or B-A permeability (3 filter replicates), respectively. Samples are collected at the start and end of experiment from the donor and at various time intervals for up to 2 hours also from the receiver side for concentration measurement by HPLC-MS/MS or scintillation counting. Sampled receiver volumes are replaced with fresh receiver solution.
Efflux ratio (ER)=permeability B−A/permeability A−B

| SMILES | Papp A→B [×10⁻⁶ cm/s] |
| --- | --- |
| Cn1cnnc1C1(F)CCN(c2c(C#N)cc(C(F)(F)F)nc2-c2cnc3nn(C(C)(C)C)cc3c2C(F)F)CC1 [Example 15] | 7.6 |
| Cc1nn(C)c(C)c1-c1cc(C#N)c(N2CCC(F)(c3nncn3C)CC2)c(-c2cnc3nn(C(F)(F)F)cc3c2)n1 [Example 23] | 4.1 |
| Cc1nn(C)cc1-c1cc(C#N)c(N2CCC(F)(c3nncn3C)CC2)c(-c2cnc3nn(C(F)(F)F)cc3c2)n1 [Example 17] | 5.1 |

Same assay, conditions: human, pH 7.2; Table 7, compounds of the invention, CACO-2 cells, permeability B-A/permeability A-B; read-out: Efflux Ratio

| SMILES | efflux ratio |
| --- | --- |
| Cn1cnnc1C1(F)CCN(c2c(C#N)cc(C(F)(F)F)nc2-c2cnc3nn(C(C)(C)C)cc3c2C(F)F)CC1 [Example 15] | 10.9 |
| Cc1nn(C)c(C)c1-c1cc(C#N)c(N2CCC(F)(c3nncn3C)CC2)c(-c2cnc3nn(C(F)(F)F)cc3c2)n1 [Example 23] | 16.3 |
| Cc1nn(C)cc1-c1cc(C#N)c(N2CCC(F)(c3nncn3C)CC2)c(-c2cnc3nn(C(F)(F)F)cc3c2)n1 [Example 17] | 9.4 |

Tested on: murine hepatocytes
Assay: Assay E: stability in murine hepatocytes
Type: in vitro ADME, mouse
Conditions: Table 12, compounds of the invention, 1 μM, 5% species serum
Protocol: The metabolic degradation of the test compound is assayed in a murine hepatocyte suspension.
Murine hepatocytes (typically cryopreserved) are incubated in an appropriate buffer system (e.g. Dulbecco's modified eagle medium plus 3.5 μg glucagon/500 mL, 2.5 mg insulin/500 mL and 3.75 mg/500 mL hydrocortison) containing 5% species serum.
Following a (typically) 30 min preincubation in an incubator (37° C., 10% CO2) 5 μl of test compound solution (80 μM; from 2 mM in DMSO stock solution diluted 1:25 with medium) are added into 395 μl hepatocyte suspension (cell density in the range 0.25-5 Mio cells/mL, typically 1 Mio cells/mL; final concentration of test compound 1 μM, final DMSO concentration 0.05%).
The cells are incubated for six hours (incubator, orbital shaker) and samples (25 μl) are taken at 0, 0.5, 1, 2, 4 and 6 hours. Samples are transferred into acetonitrile and pelleted by centrifugation (5 min). The supernatant is transferred to a new 96-deepwell plate, evaporated under nitrogen and resuspended.
Decline of parent compound is analyzed by HPLC-MS/MS
CLint is calculated as follows CL_[…]=Dose/AUC=(C0/CD)/(AUD+clast/k)×1000/60. C0: initial concentration in the incubation [μM], CD: cell density of vital cells [10e6 cells/mL], AUD: area under the data [μM×h], clast: concentration of last data point [μM], k: slope of the regression line for parent decline [h−1].
The calculated in vitro hepatic intrinsic clearance can be scaled up to the intrinsic in vivo hepatic Clearance and used to predict hepatic in vivo blood clearance (CL) by the use of a liver model (well stirred model).
[formula] [formula] [formula] • Hepatocellularity, mouse: 120×10e6 cells/g liver • Liver factor, mouse: 55 g/kg bodyweight • Blood flow, mouse: 90 ml/(min×kg)

| SMILES | Mouse Hepatocyte Stability QH [%] |
| --- | --- |
| Cn1cnnc1C1(F)CCN(c2c(C#N)cc(C(F)(F)F)nc2-c2cnc3nn(C(C)(C)C)cc3c2C(F)F)CC1 [Example 15] | <12 |
| Cc1nn(C)c(C)c1-c1cc(C#N)c(N2CCC(F)(c3nncn3C)CC2)c(-c2cnc3nn(C(F)(F)F)cc3c2)n1 [Example 23] | <12 |
| Cc1nn(C)cc1-c1cc(C#N)c(N2CCC(F)(c3nncn3C)CC2)c(-c2cnc3nn(C(F)(F)F)cc3c2)n1 [Example 17] | 18 |

Tested on: SIRPα signalling induced by Raji cells
Assay: Assay B: SIRPα signalling assay using Raji cells
Type: cell-based
Conditions: Homo sapiens, Table 4, compounds of the invention, read-out: Inhibition of SIRPα signalling induced by Raji cells: IC50
Protocol: Bioassay reagent 1 of the PathHunter Bioassay detection kit (DiscoverX 93-0001) was added to each well of the plate using a multichannel pipette followed by a 15 min incubation at room temperature. Afterwards bioassay reagent 2 was added followed by 60 min incubation at room temperature (incubation in the dark).
The analysis of the data was performed using the luminescence signal generated by beta-galactosidase in the PathHunter reporter cell line. The luminescence measurement was done using a Pherastar Multi-Mode Reader.

| SMILES | IC50 [nM] |
| --- | --- |
| Cn1cnnc1C1(F)CCN(c2c(C#N)cc(C(F)(F)F)nc2-c2cnc3nn(C(C)(C)C)cc3c2C(F)F)CC1 [Example 15] | 3 |
| Cc1nn(C)c(C)c1-c1cc(C#N)c(N2CCC(F)(c3nncn3C)CC2)c(-c2cnc3nn(C(F)(F)F)cc3c2)n1 [Example 23] | 169 |
| Cc1nn(C)cc1-c1cc(C#N)c(N2CCC(F)(c3nncn3C)CC2)c(-c2cnc3nn(C(F)(F)F)cc3c2)n1 [Example 17] | 69 |

Target: T2, QPCT (Homo sapiens, UniProt Q16769)
T2 construct: purchased Origine (OriGene) TP700028
T2 sequence (Q16769 29-361): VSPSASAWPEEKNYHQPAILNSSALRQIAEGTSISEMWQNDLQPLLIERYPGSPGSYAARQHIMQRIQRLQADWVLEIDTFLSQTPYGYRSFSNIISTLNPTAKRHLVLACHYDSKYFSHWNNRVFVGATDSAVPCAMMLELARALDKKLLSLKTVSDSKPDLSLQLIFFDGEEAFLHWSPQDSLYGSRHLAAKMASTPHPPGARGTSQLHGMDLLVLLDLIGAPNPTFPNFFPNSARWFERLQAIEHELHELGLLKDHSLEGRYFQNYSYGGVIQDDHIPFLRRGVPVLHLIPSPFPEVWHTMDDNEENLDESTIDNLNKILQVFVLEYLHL
Assay: Assay A: biochemical QPCT activity assay (MALDI-TOF MS, CD47 peptide substrate)
Conditions: Table 2, compounds of the invention, read-out: Inhibition of QPCT: IC50
Protocol: as §1

| SMILES | IC50 [nM] |
| --- | --- |
| Cn1cnnc1C1(F)CCN(c2c(C#N)cc(C(F)(F)F)nc2-c2cnc3nn(C(C)(C)C)cc3c2C(F)F)CC1 [Example 15] | 9 |
| Cc1nn(C)c(C)c1-c1cc(C#N)c(N2CCC(F)(c3nncn3C)CC2)c(-c2cnc3nn(C(F)(F)F)cc3c2)n1 [Example 23] | 2 |
| Cc1nn(C)cc1-c1cc(C#N)c(N2CCC(F)(c3nncn3C)CC2)c(-c2cnc3nn(C(F)(F)F)cc3c2)n1 [Example 17] | 2 |
